# Measurements from patent publication US8252832B2, “Kinesin inhibitors as cancer therapeutics” (Novartis AG, priority 2007, dated 2012).
# Where two headings read alike, the source gives them in different places.
# Tested on: panel of cell lines derived from hematological malignancies
# Experiment: Cell survival assay, CellTiter-Glo readout after 48 hours, hematological panel
# Assay type: cell-based
# Design: key to Differential: panel average log(GI50) minus cell line log(GI50); positive = more sensitive
# Procedure: Compound IIa was tested against a panel of cell lines derived from hematological malignancies in a cell survival assay using CellTiter-Glo® as a readout after 48 hours in the presence of compound. Table 18 lists the type of hematological malignancy, the name of the sample, its GI50 (concentration needed to achieve 50% growth inhibition) value in the assay, the logarithm of the GI50 (log(GI50), and the relative sensitivity of each sample (Differential). The differential is calculated by subtracting the log(GI50) for each cell line from the average log(GI50) across the entire panel (0.236 in this case); a positive value indicates a sample that is more sensitive than average, whereas a negative value indicates a sample that is less sensitive than average.
smiles,measurement,setting,value
CC(C)(C)[C@H](c1nc(-c2cc(F)ccc2F)cn1Cc1ccccc1)N(CC[C@H](N)CF)C(=O)CO [Compound IIa],GI50,"Homo sapiens, MM1.S, 48 h, MM1-S (MM), read-out: GI50",0.24 nM
same,GI50,"Homo sapiens, MM1.S, 48 h, MM1-S (MM), read-out: Log(GI50) (converted)",0.24 nM
same,GI50,"Homo sapiens, MOLT-3, 48 h, MOLT-3 (ALL), read-out: GI50",0.34 nM
same,GI50,"Homo sapiens, MOLT-3, 48 h, MOLT-3 (ALL), read-out: Log(GI50) (converted)",0.335 nM
same,GI50,"Homo sapiens, MOLT-4, 48 h, MOLT-4 (ALL), read-out: GI50",0.33 nM
same,GI50,"Homo sapiens, MOLT-4, 48 h, MOLT-4 (ALL), read-out: Log(GI50) (converted)",0.331 nM
same,GI50,"Homo sapiens, MV4-11, 48 h, MV4, 11 (AML), read-out: GI50",0.08 nM
same,GI50,"Homo sapiens, MV4-11, 48 h, MV4, 11 (AML), read-out: Log(GI50) (converted)",0.0769 nM
same,GI50,"Homo sapiens, NALM-6, 48 h, NALM-6 (ALL), read-out: GI50",0.14 nM
same,GI50,"Homo sapiens, NALM-6, 48 h, NALM-6 (ALL), read-out: Log(GI50) (converted)",0.135 nM
same,GI50,"Homo sapiens, NCI-H929, 48 h, H929 (MM), read-out: GI50",0.34 nM
same,GI50,"Homo sapiens, NCI-H929, 48 h, H929 (MM), read-out: Log(GI50) (converted)",0.335 nM
same,GI50,"Homo sapiens, OPM-2, 48 h, OPM2 (MM), read-out: GI50",0.14 nM
same,GI50,"Homo sapiens, OPM-2, 48 h, OPM2 (MM), read-out: Log(GI50) (converted)",0.135 nM
same,GI50,"Homo sapiens, RPMI-8226, 48 h, RPMI8226 (MM), read-out: GI50",0.26 nM
same,GI50,"Homo sapiens, RPMI-8226, 48 h, RPMI8226 (MM), read-out: Log(GI50) (converted)",0.262 nM
same,GI50,"Homo sapiens, RS4-11, 48 h, RS4, 11 (ALL), read-out: GI50",0.1 nM
same,GI50,"Homo sapiens, RS4-11, 48 h, RS4, 11 (ALL), read-out: Log(GI50) (converted)",0.1 nM
same,GI50,"Homo sapiens, Ramos, 48 h, Ramos (NHL), read-out: GI50",0.16 nM
same,GI50,"Homo sapiens, Ramos, 48 h, Ramos (NHL), read-out: Log(GI50) (converted)",0.16 nM
same,GI50,"Homo sapiens, SET-2, 48 h, SET-2 (AML), read-out: GI50",0.34 nM
same,GI50,"Homo sapiens, SET-2, 48 h, SET-2 (AML), read-out: Log(GI50) (converted)",0.34 nM
same,GI50,"Homo sapiens, SU-DHL-1, 48 h, SuDHL-1 (NHL), read-out: GI50",10 nM
same,GI50,"Homo sapiens, SU-DHL-1, 48 h, SuDHL-1 (NHL), read-out: Log(GI50) (converted)",10 nM
same,GI50,"Homo sapiens, SU-DHL-4, 48 h, SuDHL-4 (NHL), read-out: GI50",0.45 nM
same,GI50,"Homo sapiens, SU-DHL-4, 48 h, SuDHL-4 (NHL), read-out: Log(GI50) (converted)",0.447 nM
same,GI50,"Homo sapiens, SU-DHL-6, 48 h, SuDHL-6 (NHL), read-out: GI50",0.16 nM
same,GI50,"Homo sapiens, SU-DHL-6, 48 h, SuDHL-6 (NHL), read-out: Log(GI50) (converted)",0.16 nM
same,GI50,"Homo sapiens, SUP-B15, 48 h, SUP-B15 (ALL), read-out: GI50",0.19 nM
same,GI50,"Homo sapiens, SUP-B15, 48 h, SUP-B15 (ALL), read-out: Log(GI50) (converted)",0.19 nM
same,GI50,"Homo sapiens, SUP-T1, 48 h, SUP-T1 (NHL), read-out: GI50",5.57 nM
same,GI50,"Homo sapiens, SUP-T1, 48 h, SUP-T1 (NHL), read-out: Log(GI50) (converted)",5.57 nM
same,GI50,"Homo sapiens, U-937, 48 h, U937 (NHL), read-out: GI50",0.2 nM
same,GI50,"Homo sapiens, U-937, 48 h, U937 (NHL), read-out: Log(GI50) (converted)",0.2 nM
same,Differential,HuT78 (NHL),0.195
same,Differential,INA-6 (MM),0.555
same,GI50,"INA-6, 48 h, INA-6 (MM), read-out: GI50",0.12 nM
same,GI50,"INA-6, 48 h, INA-6 (MM), read-out: Log(GI50) (converted)",0.12 nM
same,Differential,K562 (CML),0.314
same,Differential,KM-H2 (HL),0.266
same,Differential,KMS11 (MM),−0.050
same,Differential,KMS11-Luc (MM),0.172
same,Differential,KMS12 (MM),0.172
same,Differential,KMS18-Luc (MM),−0.080
same,Differential,KMS26 (MM),0.254
same,GI50,"KMS-26, 48 h, KMS26 (MM), read-out: GI50",0.24 nM
same,GI50,"KMS-26, 48 h, KMS26 (MM), read-out: Log(GI50) (converted)",0.24 nM
same,Differential,Karpas-299 (NHL),0.333
same,Differential,Karpas-299-Luc (NHL),−1.671
same,Differential,Karpas-422 (NHL),−1.077
same,Differential,Kasumi-1 (AML),−0.010
same,Differential,L363 (MM),0.520
same,Differential,L428 (HL),−1.667
same,Differential,L-1236 (HL),−0.930
same,GI50,"L-1236, 48 h, L-1236 (HL), read-out: GI50",3.67 nM
same,GI50,"L-1236, 48 h, L-1236 (HL), read-out: Log(GI50) (converted)",3.66 nM
same,Differential,LP1 (MM),0.322
same,Differential,MHH-CALL-2 (ALL),0.136
same,Differential,MHH-CALL-3 (ALL),0.333
same,Differential,MHH-CALL-4 (ALL),−1.366
same,GI50,"MHHCALL4, 48 h, MHH-CALL-4 (ALL), read-out: GI50",10 nM
same,GI50,"MHHCALL4, 48 h, MHH-CALL-4 (ALL), read-out: Log(GI50) (converted)",10 nM
same,Differential,MM1-S (MM),0.254
same,Differential,MM1-S-Luc (MM),0.272
same,Differential,MOLM13-Luc (AML),0.279
same,Differential,MOLT-3 (ALL),0.109
same,Differential,MOLT-4 (ALL),0.114
same,Differential,MUTZ-5 (ALL),−1.366
same,Differential,"MV4, 11 (AML)",0.747
same,Differential,"MV4, 11Luc (AML)",0.613
same,Differential,NALM-6 (ALL),0.504
same,Differential,NALM-19 (ALL),0.355
same,Differential,OPM2 (MM),0.504
same,Differential,REH (ALL),0.379
same,Differential,RL (NHL),−1.667
same,Differential,RPMI8226 (MM),0.216
same,Differential,"RS4, 11 (ALL)",0.634
same,Differential,Ramos (NHL),0.430
same,Differential,SEM-Luc (ALL),0.458
same,Differential,SET-2 (AML),0.102
same,Differential,SR (NHL),0.591
same,Differential,SUP-B15 (ALL),0.355
same,Differential,SUP-M2 (NHL),0.379
same,GI50,"SUP-M2, 48 h, SUP-M2 (NHL), read-out: GI50",0.18 nM
same,GI50,"SUP-M2, 48 h, SUP-M2 (NHL), read-out: Log(GI50) (converted)",0.18 nM
same,Differential,SUP-T1 (NHL),−1.112
same,Differential,SuDHL-1 (NHL),−1.366
same,Differential,SuDHL-4 (NHL),−0.016
same,Differential,SuDHL-6 (NHL),0.430
same,Differential,TANOUE (ALL),−1.366
same,Differential,U937 (NHL),0.333
same,GI50,"UKE1, 48 h, UKE-1 (AML), read-out: GI50",0.18 nM
same,GI50,"UKE1, 48 h, UKE-1 (AML), read-out: Log(GI50) (converted)",0.175 nM
same,Differential,UKE-1 (AML),0.391
same,Differential,YT (ALL),−1.366
